BigSolDB 2.1

Structure (SMILES): O=C1Nc2ccccc2C1=O
- solubility (mole fraction) (in 1,4-dioxane, 293.15 K): 0.0162
- solubility (mole fraction) (in 1,4-dioxane, 298.15 K): 0.0188
- solubility (mole fraction) (in 1,4-dioxane, 303.15 K): 0.0218
- solubility (mole fraction) (in 1,4-dioxane, 308.15 K): 0.0252
- solubility (mole fraction) (in 1,4-dioxane, 313.15 K): 0.029
- solubility (mole fraction) (in 1,4-dioxane, 318.15 K): 0.0331
- solubility (mole fraction) (in 1,4-dioxane, 323.15 K): 0.0378
- solubility (mole fraction) (in 1,4-dioxane, 328.15 K): 0.0428
- solubility (mole fraction) (in 1,4-dioxane, 333.15 K): 0.0484
- solubility (mole fraction) (in DMF, 283.15 K): 0.127
- solubility (mole fraction) (in DMF, 288.25 K): 0.135
- solubility (mole fraction) (in DMF, 293.25 K): 0.143
- solubility (mole fraction) (in DMF, 298.15 K): 0.151
- solubility (mole fraction) (in DMF, 303.15 K): 0.16
- solubility (mole fraction) (in DMF, 308.25 K): 0.17
- solubility (mole fraction) (in DMF, 313.25 K): 0.179
- solubility (mole fraction) (in DMF, 318.45 K): 0.19
- solubility (mole fraction) (in DMF, 323.15 K): 0.198
- solubility (mole fraction) (in DMF, 328.15 K): 0.209
- solubility (mole fraction) (in DMF, 333.15 K): 0.218
- solubility (mole fraction) (in THF, 289.85 K): 0.0197
- solubility (mole fraction) (in THF, 297.15 K): 0.0234
- solubility (mole fraction) (in THF, 301.15 K): 0.0254
- solubility (mole fraction) (in THF, 305.15 K): 0.028
- solubility (mole fraction) (in THF, 308.95 K): 0.0301
- solubility (mole fraction) (in THF, 314.05 K): 0.0335
- solubility (mole fraction) (in THF, 318.35 K): 0.0367
- solubility (mole fraction) (in THF, 323.15 K): 0.0399
- solubility (mole fraction) (in acetone, 287.25 K): 0.0109
- solubility (mole fraction) (in acetone, 292.75 K): 0.0125
- solubility (mole fraction) (in acetone, 298.45 K): 0.014
- solubility (mole fraction) (in acetone, 302.65 K): 0.0158
- solubility (mole fraction) (in acetone, 308.35 K): 0.0174
- solubility (mole fraction) (in acetone, 312.65 K): 0.0193
- solubility (mole fraction) (in acetone, 318.15 K): 0.0217
- solubility (mole fraction) (in acetone, 323.35 K): 0.0241
- solubility (mole fraction) (in acetonitrile, 283.15 K): 0.0042
- solubility (mole fraction) (in acetonitrile, 288.35 K): 0.00498
- solubility (mole fraction) (in acetonitrile, 294.65 K): 0.00608
- solubility (mole fraction) (in acetonitrile, 298.15 K): 0.00675
- solubility (mole fraction) (in acetonitrile, 303.15 K): 0.00789
- solubility (mole fraction) (in acetonitrile, 308.15 K): 0.00893
- solubility (mole fraction) (in acetonitrile, 313.15 K): 0.0103
- solubility (mole fraction) (in acetonitrile, 318.15 K): 0.0118
- solubility (mole fraction) (in acetonitrile, 323.15 K): 0.0136
- solubility (mole fraction) (in dichloromethane, 278.15 K): 0.000788
- solubility (mole fraction) (in dichloromethane, 282.35 K): 0.000876
- solubility (mole fraction) (in dichloromethane, 286.25 K): 0.000982
- solubility (mole fraction) (in dichloromethane, 290.55 K): 0.0011
- solubility (mole fraction) (in dichloromethane, 293.15 K): 0.0012
- solubility (mole fraction) (in dichloromethane, 296.95 K): 0.00132
- solubility (mole fraction) (in dichloromethane, 299.85 K): 0.00141
- solubility (mole fraction) (in dichloromethane, 303.25 K): 0.00153
- solubility (mole fraction) (in dichloromethane, 307.65 K): 0.0017
- solubility (mole fraction) (in ethyl acetate, 288.15 K): 0.00421
- solubility (mole fraction) (in ethyl acetate, 293.35 K): 0.0048
- solubility (mole fraction) (in ethyl acetate, 298.25 K): 0.00565
- solubility (mole fraction) (in ethyl acetate, 303.65 K): 0.00637
- solubility (mole fraction) (in ethyl acetate, 308.65 K): 0.00733
- solubility (mole fraction) (in ethyl acetate, 313.35 K): 0.00822
- solubility (mole fraction) (in ethyl acetate, 318.15 K): 0.0092
- solubility (mole fraction) (in ethyl acetate, 323.35 K): 0.0103
- solubility (mole fraction) (in toluene, 288.15 K): 0.000588
- solubility (mole fraction) (in toluene, 293.15 K): 0.000637
- solubility (mole fraction) (in toluene, 298.15 K): 0.000685
- solubility (mole fraction) (in toluene, 303.15 K): 0.000714
- solubility (mole fraction) (in toluene, 308.15 K): 0.000771
- solubility (mole fraction) (in toluene, 313.15 K): 0.000819
- solubility (mole fraction) (in toluene, 318.15 K): 0.000884
- solubility (mole fraction) (in toluene, 323.15 K): 0.000926
